Consider one molecule from PMC8805583, “Discovery of Herbacetin as a Novel SGK1 Inhibitor to Alleviate Myocardial Hypertrophy” (Advanced Science, 2021).

“Also recorded” adds a separate entry of the source.

The target of series [1] is T1, SGK1 protein with the D177A mutation (Homo sapiens, UniProt O00141, D177A).
T1 construct: host or cells: HEK293T
T1 sequence (O00141 1-431 D177A): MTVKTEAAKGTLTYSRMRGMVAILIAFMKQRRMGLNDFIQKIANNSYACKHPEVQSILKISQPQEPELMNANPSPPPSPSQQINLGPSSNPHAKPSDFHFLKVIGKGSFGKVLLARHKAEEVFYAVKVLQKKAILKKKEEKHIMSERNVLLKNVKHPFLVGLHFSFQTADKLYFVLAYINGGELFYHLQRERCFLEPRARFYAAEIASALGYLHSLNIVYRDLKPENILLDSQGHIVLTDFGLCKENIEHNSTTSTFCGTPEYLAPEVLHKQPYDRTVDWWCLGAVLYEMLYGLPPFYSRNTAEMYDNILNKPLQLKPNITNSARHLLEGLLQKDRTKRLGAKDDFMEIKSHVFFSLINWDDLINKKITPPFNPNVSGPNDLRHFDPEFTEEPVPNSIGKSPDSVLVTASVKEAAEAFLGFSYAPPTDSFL
Briefly: MS-based kinase inhibitory assay with FLAG-tagged mutated SGK1 immunoprecipitated from HEK293T. Type of series: biochemical. As to conditions: normalized to WT SGK1. From the text:
To further elaborate the interaction between SGK1 and HBT, the SGK1‐HBT complex was constructed by molecular docking based on the SGK1 crystal structures retrieved from the Protein Data Bank (PDB). […] To explore the impacts of these three residues on the SGK1‐HBT binding, plasmids carrying respective SGK1 mutations (D177A, N227A, and T239A) were designed and transfected in the human embryonic kidney cells (HEK293T). The FLAG‐tagged wild‐type or mutated SGK1 protein lysates were collected by immunoprecipitation and examined for enzymatic activity in the presence of HBT using MS‐based kinase inhibitory assay.
The initial crystal structures of SGK1 (PDB entry: 3HDN, 3HDM, and 2R5T) were obtained from the Protein Data Bank (PDB). The prepared inhibitors were then docked by Glide with the extra precision (XP) scoring mode to estimate the binding affinity for each protein–ligand complex. The detailed process of docking has been described previously.^[ [46] ^] HEK293T cells were transfected with SGK1 mutant plasmids. After 24 h, cells were lysed and immunoprecipitated with anti‐FLAG antibody and beads. Immune complexes were washed with kinase buffer and incubated in kinase buffer with substrate peptide for 1 h at 30 ℃ followed by LC/MS measurement as described above. KINOMEscan Profiling Service and KinaseProfiler Service Assay were provided by Eurofins Discovery.

A short description of series [2]: Pharmacokinetics and tissue distribution after single oral administration. As to conditions: single oral dose 40 mg kg−1. Type of series: in vivo, Sprague-Dawley rats. Here is the method:
Finally, we evaluate the safety and pharmacokinetics of HBT to ensure its druggability. […] Single dose administration of HBT at 40 mg kg^−1 was uptaken rapidly with a maximal plasma concentration of ≈6.73 ng mL^−1 after 10 min (Figure S14A, Supporting Information).
Figure S13. Serum level of biochemical markers in mice of Ctrl and Ctrl + HBT groups. Data were analyzed using unpaired two-tailed t test and data were expressed as means ± SD, ns: no […]
Figure S14. Plasma concentration (A) and in vivo distribution (B) of HBT after single oral administration with dosage of 40mg/kg rat weight (n=5-6). The quantitation of HBT was performed by LC-MS/MS analysis. […]
or Fluo-4 AM working solution was added to each well and incubated at 37℃ for 20 minutes.
Then the cells were washed with PBS for 3 times and images were acquired using an ImageXpress Micro® Confocal High-Content Imaging System (Molecular Devices). The mean fluorescence intensity of cells positive for DCFH-DA or Fluo-4 AM staining was […]
4. Histology and Immunohistochemistry (IHC)
At the end of the experiment, mice were sacrificed and the hearts were harvested, fixed in 4% formalin, and paraffin embedded. Fibrosis was detected with Masson’s trichrome staining kit (Sigma) according to the manufacturer’s protocol. SGK1 expression of cardiomyocytes was determined by staining cells with antibodies specific for SGK1.
RT-PCR was performed to validate DEGs in the FoxO signaling pathway in response to Ext.R and also HBT’s effect on hypertrophic cardiomyocytes stimulated with phenylephrine. Total RNA isolation, reverse transcription and quantitative RT-PCR were performed using an Ultrapure RNA Kit, a HiFiScript First Strand cDNA Synthesis Kit, and an UltraSYBR Mixture Kit (CWBIO) respectively, according to the manufacturer's instructions. Relative target gene mRNA expression level was normalized to GAPDH. Primer sequences of genes […]
6. Pharmacokinetics studies
Twelve male Sprague-Dawley rats, weighing 250 ± 10 g, were purchased from Huafukang biological technology (Beijing, China). […]

`O=c1c(O)c(-c2ccc(O)cc2)oc2c(O)c(O)cc(O)c12` [HBT, herbacetin]: the “inhibition of D177A-mutated SGK1 by HBT” value in series [1] is given as “completely ablates; also recorded: almost completely lost its response”. The Tmax in series [2] (male, Sprague-Dawley, plasma, rat, read-out: time of maximal plasma concentration (converted)) was 10 min. Moreover, in series [2] (at time of maximal plasma concentration), the “tissue distribution (heart, liver, kidney)” value is on record as “readily detected”. Moreover, the maximal plasma concentration entry in series [2] (rat) is on record as “≈ 6.73 ng mL^−1”.
